Compound: CO[C@@H]1[C@H](N(C)C(=O)c2ccccc2)C[C@H]2O[C@]1(C)n1c3ccccc3c3c4c(c5c6ccccc6n2c5c31)C(=O)NC4 [Midostaurin] + Cc1cc(Nc2cc(N3CCN(C)CC3)nc(Sc3ccc(NC(=O)C4CC4)cc3)n2)n[nH]1 [Tozasertib] (partner 0.1 µM)
Test: relative viability (nuclei count vs DMSO), 5 days (fraction); higher = more cells survive
Settings: first compound 0.1 µM
In short: (§1)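 Relative viability was taken as the ratio of nuclei in treated wells to nuclei in vehicle wells. Lung cancer cell lines in 1536-well plates received compounds by pin tool one day after seeding, either one drug alone or a fixed anchor-drug dose plus five library-drug doses (not always all listed) in √10 steps. Nuclei were counted on 4× images after 5 days of treatment, and values are medians of duplicate plates.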

Point of comparison: EMC-BAC-2, relative viability 0.243. Against it:
- LCLC-103H — higher, 0.456
- NCI-H520 — higher, 0.457
- NCI-H2126 — higher, 0.844
- NCI-H2085 — higher, 0.663
- HCC-366 — lower, 0.0694
- NCI-H1666 — higher, 0.596
- NCI-H596 — higher, 0.899
- LK-2 — lower, 0.18
- NCI-H2087 — lower, 0.225
- NCI-H1648 — higher, 0.417
- SK-MES-1 — higher, 0.741
- H3255 — higher, 0.61
- COR-L23 — lower, 0.166
- ChaGo-K-1 — lower, 0.229
- HCC-44 — higher, 0.819
- NCI-H522 — higher, 0.629
- SW 900 — higher, 0.59
- NCI-H661 — higher, 0.364
- ABC-1 — lower, 0.174
- NCI-H358 — lower, 0.0978
- NCI-H650 — higher, 0.749

Same assay, conditions: first compound 0.3162 µM

Point of comparison: ChaGo-K-1, relative viability 0.219. Against it:
- NCI-H2342 — higher, 0.538
- NCI-H1623 — higher, 0.446
- NCI-H727 — higher, 0.468
- NCI-H1650 — higher, 0.342
- NCI-H1993 — higher, 0.599
- SW 1573 — lower, 0.157
- NCI-H838 — higher, 0.286
- LCLC-103H — higher, 0.379
- NCI-H520 — higher, 0.407
- NCI-H2126 — higher, 0.857
- EMC-BAC-2 — higher, 0.273
- NCI-H2085 — higher, 0.582
- HCC-366 — lower, 0.0567
- NCI-H1666 — higher, 0.488
- NCI-H596 — higher, 0.947
- LK-2 — lower, 0.173
- NCI-H2087 — lower, 0.207
- NCI-H1648 — higher, 0.299
- SK-MES-1 — higher, 0.578
- H3255 — higher, 0.695
- COR-L23 — lower, 0.152
- HCC-44 — higher, 0.778
- NCI-H522 — higher, 0.621
- SW 900 — higher, 0.466
- NCI-H661 — higher, 0.376
- ABC-1 — lower, 0.201
- NCI-H358 — lower, 0.112
- NCI-H650 — higher, 0.615

Compound: CO[C@@H]1[C@H](N(C)C(=O)c2ccccc2)C[C@H]2O[C@]1(C)n1c3ccccc3c3c4c(c5c6ccccc6n2c5c31)C(=O)NC4 [Midostaurin] + CC1(C)CCC(c2ccc(Cl)cc2)=C(CN2CCN(c3ccc(C(=O)NS(=O)(=O)c4ccc(N[C@H](CCN5CCOCC5)CSc5ccccc5)c(S(=O)(=O)C(F)(F)F)c4)cc3)CC2)C1 [Navitoclax] (partner 0.5 µM)
Test: as above
Settings: first compound 0.01 µM
In short: as §1

Point of comparison: NCI-H1993, relative viability 0.964. Against it:
- NCI-H727 — lower, 0.41
- NCI-H1650 — higher, 1.29
- EBC-1 — lower, 0.49
- NCI-H1703 — higher, 1.21
- SW 1573 — lower, 0.957
- NCI-H838 — higher, 1.23
- NCI-H520 — higher, 1.05
- NCI-H2126 — lower, 0.92
- EMC-BAC-2 — higher, 1.19
- NCI-H2085 — higher, 1.16
- Calu-6 — lower, 0.69
- HCC-366 — higher, 1.07
- NCI-H1666 — lower, 0.872
- NCI-H596 — higher, 1.09
- LK-2 — lower, 0.831
- NCI-H2087 — higher, 1
- SK-MES-1 — higher, 1.17
- H3255 — lower, 0.575
- COR-L23 — higher, 0.99
- IA-LM — lower, 0.81
- ChaGo-K-1 — lower, 0.909
- HCC-44 — lower, 0.949
- A549 — higher, 1.2
- NCI-H1299 — higher, 1.07
- NCI-H1792 — lower, 0.613

Same assay, conditions: first compound 0.03162 µM

Point of comparison: NCI-H727, relative viability 0.368. Against it:
- NCI-H1650 — higher, 1.03
- EBC-1 — higher, 0.453
- NCI-H1703 — higher, 0.974
- NCI-H1993 — higher, 0.901
- SW 1573 — higher, 1.01
- NCI-H838 — higher, 1.04
- NCI-H520 — higher, 1.17
- NCI-H2126 — higher, 0.826
- EMC-BAC-2 — higher, 1.09
- NCI-H2085 — higher, 1.06
- Calu-6 — higher, 0.757
- HCC-366 — higher, 1.16
- NCI-H1666 — higher, 0.855
- NCI-H596 — higher, 1.02
- LK-2 — higher, 0.876
- NCI-H2087 — higher, 0.98
- SK-MES-1 — higher, 1.13
- H3255 — higher, 0.587
- COR-L23 — higher, 0.966
- ChaGo-K-1 — higher, 1.36
- HCC-44 — higher, 0.982
- A549 — higher, 1.08
- NCI-H1299 — higher, 0.989
- NCI-H1792 — higher, 0.591

Same assay, conditions: first compound 0.1 µM

Point of comparison: SK-MES-1, relative viability 1.18. Against it:
- NCI-H727 — lower, 0.361
- NCI-H1650 — lower, 1.08
- EBC-1 — lower, 0.429
- NCI-H1703 — lower, 0.75
- NCI-H1993 — lower, 0.972
- SW 1573 — lower, 0.971
- NCI-H838 — lower, 1.02
- NCI-H520 — lower, 1.02
- NCI-H2126 — lower, 0.824
- EMC-BAC-2 — lower, 0.981
- NCI-H2085 — lower, 1.02
- Calu-6 — lower, 0.709
- HCC-366 — lower, 1
- NCI-H1666 — lower, 0.84
- NCI-H596 — lower, 0.978
- LK-2 — lower, 0.843
- NCI-H2087 — lower, 0.875
- H3255 — lower, 0.488
- COR-L23 — lower, 0.87
- IA-LM — lower, 0.701
- ChaGo-K-1 — lower, 0.915
- HCC-44 — lower, 0.831
- A549 — lower, 1.08
- NCI-H1299 — lower, 1.01
- NCI-H1792 — lower, 0.601

Same assay, conditions: first compound 0.3162 µM

Point of comparison: NCI-H1993, relative viability 0.992. Against it:
- NCI-H727 — lower, 0.4
- NCI-H1650 — lower, 0.846
- EBC-1 — lower, 0.312
- NCI-H1703 — lower, 0.312
- SW 1573 — higher, 1.22
- NCI-H838 — lower, 0.354
- NCI-H520 — lower, 0.865
- NCI-H2126 — lower, 0.903
- EMC-BAC-2 — higher, 1.08
- NCI-H2085 — lower, 0.757
- Calu-6 — lower, 0.697
- HCC-366 — higher, 1.06
- NCI-H1666 — lower, 0.846
- NCI-H596 — higher, 1.07

Source: the supplement of paper PMC10307832
